The subject of one data set is Myzus persicae. Put plainly: Myzus persicae - spray test (Chinese cabbage leaf discs). Format: in vivo. To be noted: 500 g/ha, after 5-6 days. How it is done: • Solvent: 78 parts by weight of acetone • 1.5 parts by weight of dimethylformamide • Emulsifier: alkylaryl polyglycol ether
(§1) To produce a suitable preparation of active compound, 1 part by weight of active compound is dissolved using the stated parts by weight of solvent and made up with water containing an emulsifier concentration of 1000 ppm until the desired concentration is attained. To produce further test concentrations, the preparation is diluted with emulsifier-containing water.
Discs of Chinese cabbage leaves (Brassica pekinensis) infested by all stages of the green peach aphid (Myzus persicae) are sprayed with an active compound preparation of the desired concentration.
After 5-6 days, the efficacy in % is determined. 100% means that all the aphids have been killed; 0% means that no aphids have been killed.

Data set [1] in a line: log P by HPLC on a reversed-phase column (C 18), EEC Directive 79/831 Annex V.A8. Format: physicochemical. To be noted: for LOGP_NEUTRAL: pH 7.8, 0.001 molar aqueous ammonium hydrogencarbonate/acetonitrile; for chromatographic logP: reversed-phase HPLC column (C 18). How it is done: The log P values are measured according to EEC Directive 79/831 Annex V.A8 by HPLC (high-performance liquid chromatography) on a reversed-phase column (C 18). Temperature: 55° C.
The LC-MS determination in the acidic range is effected at pH 2.7 using 0.1% aqueous formic acid and acetonitrile (contains 0.1% formic acid) as eluents; linear gradient from 10% acetonitrile to 95% acetonitrile. Called log P (HCOOH) in the table.
LC-MS determination in the neutral range is effected at pH 7.8 with 0.001 molar aqueous ammonium hydrogencarbonate solution and acetonitrile as eluents; linear gradient from 10% acetonitrile to 95% acetonitrile. Called log P (neutral) in the table.
Calibration is carried out using unbranched alkan-2-ones (having 3 to 16 carbon atoms) with known log P values (log P values determined on the basis of the retention times by linear interpolation between two successive alkanones).

The next data set deals with Phaedon cochleariae. In words: Phaedon cochleariae - spray test. Format: in vivo. The following applies: 500 g/ha, after 7 days, larvae on Chinese cabbage leaf discs. As for the experimental part: (§2) • Solvent: 78.0 parts by weight of acetone • 1.5 parts by weight of dimethylformamide • Emulsifier: alkylaryl polyglycol ether
as §1
After 7 days, the efficacy in % is determined. 100% means that all the beetle larvae have been killed; 0% means that no beetle larvae have been killed.

For data set [2], the system named is Ctenocephalides felis. Put plainly: Ctenocephalides felis - in vitro contact tests with adult cat fleas. It counts as in vivo. To be noted: 5 μg/cm^2 (=500 g/ha), after 48 h, adult cat fleas dead or moribund. As for the experimental part:
For the coating of the test tubes, 9 mg of active compound are first dissolved in 1 ml of acetone p.a. and then diluted to the desired concentration with acetone p.a. 250 μl of the solution are distributed homogeneously on the inner walls and the base of a 25 ml test tube by turning and rocking on an orbital shaker (rocking rotation at 30 rpm for 2 h). With 900 ppm active compound solution and internal surface 44.7 cm^2, given homogeneous distribution, an area-based dose of 5 μg/cm^2 is achieved.
After the solvent has evaporated off, the tubes are populated with 5-10 adult cat fleas (Ctenocephalides felis), sealed with a perforated plastic lid and incubated in a horizontal position at room temperature and ambient humidity. After 48 h, efficacy is determined. To this end, the test tubes are stood upright and the fleas are knocked to the base of the tube. Fleas which remain motionless at the base or move in an uncoordinated manner are considered to be dead or moribund.
100% efficacy means that all the fleas were dead or moribund. 0% efficacy means that no fleas were harmed.

For the next data set, the system named is Spodoptera frugiperda. Put plainly: Spodoptera frugiperda - spray test. It counts as in vivo. The following applies: 500 g/ha, after 7 days, caterpillars on maize leaf discs. How it is done: as §2, §1
Leaf discs of maize (Zea mays) are sprayed with an active compound preparation of the desired concentration and, after drying, populated with caterpillars of the armyworm (Spodoptera frugiperda).
After 7 days, the efficacy in % is determined. 100% means that all the caterpillars have been killed; 0% means that no caterpillars have been killed.

Another data set relates to Lucilia cuprina. Put plainly: Lucilia cuprina test. Format: in vivo. To be noted: 100 ppm, after 2 days, L1 larvae. How it is done: • Solvent: dimethyl sulphoxide To produce a suitable preparation of active compound, 10 mg of active compound are mixed with 0.5 ml of dimethyl sulphoxide, and the concentrate is diluted with water to the desired concentration. About 20 L1 larvae of the Australian sheep blowfly (Lucilia cuprina) are transferred into a test vessel containing minced horsemeat and the active compound preparation of the desired concentration. After 2 days, the kill in % is determined. 100% means that all the larvae have been killed; 0% means that no larvae have been killed.

Another data set has as its system Musca domestica. In words: Musca domestica test. It counts as in vivo. To be noted: 4 ppm, after 2 days, adult houseflies. How it is done:
• Solvent: dimethyl sulphoxide To produce a suitable preparation of active compound, 10 mg of active compound are mixed with 0.5 ml of dimethyl sulphoxide, and the concentrate is diluted with water to the desired concentration. Vessels containing a sponge treated with sugar solution and the active compound preparation of the desired concentration are populated with 10 adult houseflies (Musca domestica). After 2 days, the kill in % is determined. 100% means that all of the flies have been killed; 0% means that none of the flies have been killed.

For data set [3], the system named is Ctenocephalides felis. In words: Ctenocephalides felis - oral test. Format: in vivo. The following applies: 100 ppm in citrated cattle blood, after 2 days, adult cat fleas. As for the experimental part:
• Solvent: dimethyl sulphoxide To produce a suitable preparation of active compound, 10 mg of active compound are mixed with 0.5 ml of dimethyl sulphoxide. Dilution with citrated cattle blood gives the desired concentration. About 20 unfed adult cat fleas (Ctenocephalides felis) are placed into a chamber which is closed at the top and bottom with gauze. A metal cylinder whose bottom end is closed with parafilm is placed onto the chamber. The cylinder contains the blood/active compound preparation, which can be imbibed by the fleas through the parafilm membrane. After 2 days, the kill in % is determined. 100% means that all of the fleas have been killed; 0% means that none of the fleas have been killed.

Setting [4] is: acidic range, pH 2.7, 0.1% aqueous formic acid/acetonitrile, 55° C.
Where [5] appears, read: acidic range, pH 2.7, 0.1% aqueous formic acid/acetonitrile, 55° C., read-out: LOGP_HCOOH.
The mark [6] stands for this setting: neutral range, pH 7.8, value in preparation example text, read-out: log P (neutral).

Where two headings read alike, the source gives them in different places.

In the case of `CCS(=O)(=O)c1c(-c2nc3cc(C(F)(F)F)ccc3n2C)nc2cccc(C)n12` [Example I-46], the values for the efficacy in the data set on Myzus persicae and in the data set on Phaedon cochleariae were 90% and 83%, respectively. For the same compound, the LOGP_HCOOH in data set [1] (setting [4]) stood at 2.73.
In turn, `CCS(=O)(=O)c1c(-c2nc3cc(C(F)(F)F)ncc3n2C)nc2cc(Cl)ccn12` [Example I-23] registered an LOGP_HCOOH in data set [1] (setting [4]) of 2.66. In addition, in data set [1] (neutral range, 55° C.), the LOGP_NEUTRAL worked out at 2.64. The efficacy in the data set with Ctenocephalides felis [2], with Spodoptera frugiperda and in the data set on Phaedon cochleariae was 100% each time.
For the compound `CC[S+]([O-])c1c(-c2nc3cc(C(F)(F)F)ccc3n2C)nc2ccccn12` (centres unmarked) [Example I-11], the efficacy with Myzus persicae is reported as 90%; with Spodoptera frugiperda, 100%; with Phaedon cochleariae, 100%. In data set [1] (setting [4]), the LOGP_HCOOH is on record as 2.92. In data set [1] (neutral range, 55° C.), this compound gave an LOGP_NEUTRAL of 2.85.
`CCS(=O)(=O)c1c(-c2nc3cc(C(F)(F)F)ncc3n2C)nc2ccc(C)cn12` [Example I-48]: the efficacy was found to be 90% with Myzus persicae and 100% in the data set with Spodoptera frugiperda. The LOGP_HCOOH in data set [1] (setting [4]) is 2.43. In data set [1] (neutral range, 55° C.), this compound gave an LOGP_NEUTRAL of 2.36.
As for `CCS(=O)(=O)c1c(-c2nc3cc(C(F)(F)F)ncc3n2C)nc2ccc(Cl)cn12` [Example I-4], the efficacy was determined as 90% with Myzus persicae, 100% with Ctenocephalides felis [2] and 100% with Spodoptera frugiperda. The “efficacy (kill)” value turned out to be 100% in the data set with Lucilia cuprina, 80% with Musca domestica and 90% in the data set with Ctenocephalides felis [3]. In data set [1] (setting [4]), this compound gave an LOGP_HCOOH of 2.67. For the same compound, the LOGP_NEUTRAL in data set [1] (neutral range, 55° C.) is on record as 2.61.
Consider `CCSc1c(-c2nc3cc(C(F)(F)F)ncc3n2C)nc2ccccn12` [Example I-2, 2-(3-Ethylsulphanylimidazo[1,2-a]pyridin-2-yl)-3-methyl-6-(trifluoromethyl)imidazo[4,5-c]pyridine], for which the efficacy with Myzus persicae is reported as 90%. In data set [1] (neutral range, 55° C.), this compound came in with an LOGP_NEUTRAL of 2.75. In addition, the chromatographic logP turned out to be 2.84 in data set [1] (setting [5]) and 2.75 in data set [1] (setting [6]).
With `CCS(=O)(=O)c1c(-c2nc3cc(C(F)(F)F)ccc3n2C)nc2cc(C(F)(F)F)ccn12` [Example I-34], in data set [1] (setting [4]), the LOGP_HCOOH is 3.72. In addition, the efficacy in the data set with Ctenocephalides felis [2], in the data set with Spodoptera frugiperda and with Phaedon cochleariae was 100% in each case.
As for `CCS(=O)(=O)c1c(-c2nc3cc4c(cc3n2C)OC(F)(F)O4)nc2ccccn12` [Example I-41, 6-[3-(Ethylsulphonyl)imidazo[1,2-a]pyridin-2-yl]-2,2-difluoro-5-methyl-5H-[1,3]dioxolo[4,5-f]benzimidazole], the figures for the efficacy in the data set with Myzus persicae, in the data set with Spodoptera frugiperda and with Phaedon cochleariae were 90%, 83% and 100%, respectively. Moreover, the LOGP_NEUTRAL in data set [1] (neutral range, 55° C.) stood at 2.62. Besides, the chromatographic logP in data set [1] (setting [5]) was 2.59; in data set [1] (setting [6]), 2.62.
Consider `CCS(=O)(=O)c1c(-c2nc3cc(C(F)(F)F)cnc3n2C)nc2ccc(C)cn12` [Example I-53], for which the efficacy in the data set on Myzus persicae and in the data set with Spodoptera frugiperda was 100% in each case. In data set [1] (setting [4]), this compound registered an LOGP_HCOOH of 2.84. In data set [1] (neutral range, 55° C.), the LOGP_NEUTRAL worked out at 2.78.
On to `CCS(=O)(=O)c1c(-c2nc3cc(C(F)(F)F)ncc3n2C)nc2c(Cl)cccn12` [Example I-19], for which the efficacy is 90% in the data set on Myzus persicae, 100% in the data set with Spodoptera frugiperda and 100% in the data set with Phaedon cochleariae. This compound also came in with an LOGP_HCOOH in data set [1] (setting [4]) of 2.56. In data set [1] (neutral range, 55° C.), this compound yielded an LOGP_NEUTRAL of 2.50.
Consider `CC[S+]([O-])c1c(-c2nc3cc(C(F)(F)F)ncc3n2C)nc2cccc(C(F)(F)F)n12` (centres unmarked) [Example I-22], for which the efficacy came to 90% with Myzus persicae and 100% with Phaedon cochleariae. The LOGP_HCOOH in data set [1] (setting [4]) came out at 2.30. The compound also displayed an LOGP_NEUTRAL in data set [1] (neutral range, 55° C.) of 2.30.
Take `CCS(=O)(=O)c1c(-c2nc3cc(C(F)(F)F)ncc3n2C)nc2cccc(C(F)(F)F)n12` [Example I-21]: the efficacy with Myzus persicae, in the data set with Spodoptera frugiperda and with Phaedon cochleariae was 100% each time. This compound also returned an LOGP_HCOOH in data set [1] (setting [4]) of 2.69. In data set [1] (neutral range, 55° C.), this compound gave an LOGP_NEUTRAL of 2.66.
Regarding `CCS(=O)(=O)c1c(-c2nc3cc(C(F)(F)F)ncc3n2C)nc2ccc(OC)cn12` [Example I-54], the efficacy with Myzus persicae stood at 90%; with Spodoptera frugiperda, 100%. For the same compound, the LOGP_HCOOH in data set [1] (setting [4]) stood at 2.41. The LOGP_NEUTRAL in data set [1] (neutral range, 55° C.) came to 2.37.
In the same order, the values of `CC[S+]([O-])c1c(-c2nc3cc(C(F)(F)F)ncc3n2C)nc2ccc(Cl)cn12` (centres unmarked) [Example I-7] are 90%, 100%, 2.93 and 2.83.
`CC[S+]([O-])c1c(-c2nc3cc(C(F)(F)F)ncc3n2C)nc2ccc(C(F)(F)F)cn12` (centres unmarked) [Example I-8] showed an LOGP_HCOOH in data set [1] (setting [4]) of 3.25. Moreover, the efficacy with Spodoptera frugiperda and in the data set with Phaedon cochleariae was 100% each time.
In turn, `CCS(=O)(=O)c1c(-c2nc3cc(C(F)(F)F)ccc3n2C)nc2cc(C)ccn12` [Example I-33] registered an LOGP_HCOOH in data set [1] (setting [4]) of 3.01. Further, the figures for the efficacy in the data set on Ctenocephalides felis [2] and with Spodoptera frugiperda were 100% and 83%, respectively.
In the case of `CCSc1c(-c2nc3cc(C(F)(F)F)ncc3n2C)nc2c(C(F)(F)F)cccn12` [Example I-13], the LOGP_HCOOH in data set [1] (setting [4]) is reported as 1.40. In data set [1] (neutral range, 55° C.), this compound came in with an LOGP_NEUTRAL of 3.71. In addition, the efficacy in the data set with Spodoptera frugiperda and in the data set with Phaedon cochleariae was 100% in each case.
In data set [1] (setting [4]), `CCS(=O)(=O)c1c(-c2nc3cc(C(F)(F)F)cnc3o2)nc2ccccn12` [Example I-44, 2-[3-(Ethylsulphonyl)imidazo[1,2-a]pyridin-2-yl]-6-(trifluoromethyl) [1,3]oxazolo[5,4-b]pyridine] returned an LOGP_HCOOH of 2.53. For the same compound, in data set [1] (neutral range, 55° C.), the LOGP_NEUTRAL stood at 2.52. Also, the chromatographic logP in data set [1] (setting [6]) was determined as 2.52. Moreover, the efficacy in the data set with Spodoptera frugiperda is 83%; with Phaedon cochleariae, 100%.

Source of the values: patent US10188108B2, “Fused bicyclic heterocycle derivatives as pesticides” (BAYER CROPSCIENCE AKTIENGESELLSCHAFT, priority 2015, dated 2019).
